Laboratory results from ChEMBL document CHEMBL1131692, “A study of novel antiallergic agents with eosinophilic infiltration inhibiting action” (Bioorg Med Chem Lett, 1999).

Organism: Cavia porcellus
Experiment: Evaluated for antihistamine action using guinea pig ilea
Assay type: functional
Conditions: read-out: pA2 (converted)
`Cc1cc(OCCCCCN2CCN(C(c3ccccc3)c3ccccc3)CC2)c(C)c(C)c1O` gave a Kb of 151 nM. Work on `Cc1cc(OCCCCCCCCN2CCN(C(c3ccccc3)c3ccccc3)CC2)c(C)c(C)c1O` yielded a Kb of 275 nM. In the case of `Cc1cc(OCCCN2CCN(C(c3ccccc3)c3ccccc3)CC2)c(C)c(C)c1O`, the Kb is reported as 74.1 nM. Work on `Cc1cc(OCCCCCCCCCCN2CCN(C(c3ccccc3)c3ccccc3)CC2)c(C)c(C)c1O` yielded a Kb of 407 nM. `Cc1cc(OCCCCN2CCN(C(c3ccccc3)c3ccccc3)CC2)c(C)c(C)c1O` was tested, and the Kb was 77.6 nM. For `O=c1[nH]c2ccccc2n1CCCN1CCN(C(c2ccccc2)c2ccccc2)CC1` [OXATOMIDE], the Kb was 45.7 nM. For `Cc1cc(OCCCCCCN2CCN(C(c3ccccc3)c3ccccc3)CC2)c(C)c(C)c1O`, the Kb was 155 nM. `Cc1cc(OCCN2CCN(C(c3ccccc3)c3ccccc3)CC2)c(C)c(C)c1O` gave a Kb of 117 nM.
